Laboratory results from patent US20170022258A1, “PEPTIDES FOR USE IN THE TREATMENT OF IL-1 RELATED DISEASES AND CONDITIONS” (C4M PHARMACEUTICALS PTY LTD., priority 2011, published 2017).
Non-standard residues stand in square brackets, D forms with d. Residues, ends and D or L forms follow the SMILES beside them. No end group written: not given here.

tested on: IL-1 stimulation of IL-8 in human skin fibroblasts; test: Inhibition of IL-1 induced IL-8 in human fibroblasts; format: cell-based; conditions: inhibition of IL-1 stimulation of IL-8 in human skin fibroblasts; average of three measurements and standard error; read-out: Binding (IC50 nM)
Method: Inhibition of IL-1 induced IL-8 in human fibroblasts was determined using normal human dermal fibroblast cells cultured in DMEM with 10% fetal calf serum in 48-well plates.
Twenty-four hours before initiation of the experiment, the medium was changed to DMEM with 0.2% fetal calf serum. Each peptide was added to confluent cells, which were then pulsed for 30 min with rIL-I,B (which was obtained from R & D Systems) at 50 pg/ml. The cells were washed four times with PBS, and fresh DMEM/0.2% fetal calf serum was added to each well. After 5 hr of incubation, the culture media were collected and analyzed by ELISA for IL-8 (which was obtained from R & D Systems). Maximal activation, with IL-1 only, was 2530±13 pg/ml of IL-8. Nonspecific activation, determined in the presence of 1000-fold excess IL-1Ra, was 30±9 pg/ml of IL-8 (n=3).

Row | Molecule | IC50 [nM]
1 | CC(=O)N[C@@H](Cc1ccccc1)C(=O)N[C@H](C(=O)N[C@@H](Cc1c[nH]c2ccccc12)C(=O)N[C@@H](CCC(=O)O)C(=O)N[C@@H](CCC(=O)O)C(=O)N[C@@H](CO)C(=O)N[C@@H](CC(N)=O)C(=O)N[C@@H](C)C(=O)N[C@@H](Cc1ccc(O)cc1)C(=O)N[C@@H](Cc1ccc(O)cc1)C(=O)N[C@@H](Cc1c[nH]c2ccccc12)C(=O)N[C@@H](CCC(N)=O)C(=O)N1CCC[C@H]1C(=O)N[C@@H](Cc1ccc(O)cc1)C(=O)N[C@@H](C)C(=O)N[C@@H](CC(C)C)C(=O)N1CCC[C@H]1C(=O)N[C@@H](CC(C)C)C(=O)O)[C@@H](C)O [SEQ ID NO. 15, Ac-FTWEESNAYYWQPYALPL] (Ac-FTWEESNAYYWQPYALPL-OH; C-terminus assumed) | 16
2 | CC(=O)N[C@H](CC(C)C)C(=O)N1CCC[C@@H]1C(=O)N[C@H](CC(C)C)C(=O)N[C@H](C)C(=O)N[C@H](Cc1ccc(O)cc1)C(=O)N1CCC[C@@H]1C(=O)N[C@H](CCC(N)=O)C(=O)N[C@H](Cc1c[nH]c2ccccc12)C(=O)N[C@H](Cc1ccc(O)cc1)C(=O)N[C@H](Cc1ccc(O)cc1)C(=O)N[C@H](C)C(=O)N[C@H](CC(N)=O)C(=O)N[C@H](CO)C(=O)N[C@H](CCC(=O)O)C(=O)N[C@H](CCC(=O)O)C(=O)N[C@H](Cc1c[nH]c2ccccc12)C(=O)N[C@@H](C(=O)N[C@H](Cc1ccccc1)C(=O)O)[C@H](C)O [SEQ ID NO. 16, Ac-LPLAYPQWYYANSEEWTF] (Ac-[dL][dP][dL][dA][dY][dP][dQ][dW][dY][dY][dA][dN][dS][dE][dE][dW][dT][dF]-OH; C-terminus assumed) | 120
3 | CC(=O)N[C@H](C(=O)N[C@@H](C)C(=O)N[C@@H](CC(N)=O)C(=O)N[C@H](C(=O)N[C@@H](CO)C(=O)N[C@@H](CO)C(=O)N[C@@H](Cc1ccccc1)C(=O)N[C@@H](CCC(=O)O)C(=O)N[C@@H](Cc1c[nH]c2ccccc12)C(=O)N[C@H](C(=O)N1CCC[C@H]1C(=O)NCC(=O)N[C@@H](Cc1ccc(O)cc1)C(=O)N[C@@H](Cc1c[nH]c2ccccc12)C(=O)N[C@@H](CCC(N)=O)C(=O)N1CCC[C@H]1C(=O)N[C@@H](Cc1ccc(O)cc1)C(=O)N[C@@H](C)C(=O)N[C@@H](CC(C)C)C(=O)N1CCC[C@H]1C(=O)N[C@@H](CC(C)C)C(=O)O)[C@@H](C)O)C(C)C)[C@@H](C)O [SEQ ID NO. 17] (Ac-TANVSSFEWTPGYWQPYALPL-OH; C-terminus assumed) | 76
4 | CC(=O)N[C@H](CC(C)C)C(=O)N1CCC[C@@H]1C(=O)N[C@H](CC(C)C)C(=O)N[C@H](C)C(=O)N[C@H](Cc1ccc(O)cc1)C(=O)N1CCC[C@@H]1C(=O)N[C@H](CCC(N)=O)C(=O)N[C@H](Cc1c[nH]c2ccccc12)C(=O)N[C@H](Cc1ccc(O)cc1)C(=O)NCC(=O)N1CCC[C@@H]1C(=O)N[C@@H](C(=O)N[C@H](Cc1c[nH]c2ccccc12)C(=O)N[C@H](CCC(=O)O)C(=O)N[C@H](Cc1ccccc1)C(=O)N[C@H](CO)C(=O)N[C@H](CO)C(=O)N[C@@H](C(=O)N[C@H](CC(N)=O)C(=O)N[C@H](C)C(=O)N[C@@H](C(=O)O)[C@H](C)O)C(C)C)[C@H](C)O [SEQ ID NO. 18] | 810
5 | CC(=O)N[C@@H](CC(=O)O)C(=O)NCC(=O)N[C@@H](Cc1ccc(O)cc1)C(=O)N[C@@H](CC(=O)O)C(=O)N[C@@H](CCCNC(=N)N)C(=O)N[C@@H](Cc1c[nH]c2ccccc12)C(=O)N[C@@H](CCCNC(=N)N)C(=O)N[C@@H](CCC(N)=O)C(=O)N[C@@H](CO)C(=O)NCC(=O)N[C@@H](CCC(=O)O)C(=O)N[C@@H](CCCNC(=N)N)C(=O)N[C@@H](Cc1ccc(O)cc1)C(=O)N[C@@H](Cc1c[nH]c2ccccc12)C(=O)N[C@@H](CCC(N)=O)C(=O)N1CCC[C@H]1C(=O)N[C@@H](Cc1ccc(O)cc1)C(=O)N[C@@H](C)C(=O)N[C@@H](CC(C)C)C(=O)N1CCC[C@H]1C(=O)N[C@@H](CC(C)C)C(=O)O [SEQ ID NO. 20] (Ac-DGYDRWRQSGERYWQPYALPL-OH; C-terminus assumed) | 19
6 | CC(=O)N[C@H](CC(C)C)C(=O)N1CCC[C@@H]1C(=O)N[C@H](CC(C)C)C(=O)N[C@H](C)C(=O)N[C@H](Cc1ccc(O)cc1)C(=O)N1CCC[C@@H]1C(=O)N[C@H](CCC(N)=O)C(=O)N[C@H](Cc1c[nH]c2ccccc12)C(=O)N[C@H](Cc1ccc(O)cc1)C(=O)N[C@H](CCCNC(=N)N)C(=O)N[C@H](CCC(=O)O)C(=O)NCC(=O)N[C@H](CO)C(=O)N[C@H](CCC(N)=O)C(=O)N[C@H](CCCNC(=N)N)C(=O)N[C@H](Cc1c[nH]c2ccccc12)C(=O)N[C@H](CCCNC(=N)N)C(=O)N[C@H](CC(=O)O)C(=O)N[C@H](Cc1ccc(O)cc1)C(=O)NCC(=O)N[C@H](CC(=O)O)C(=O)O [SEQ ID NO. 21] (Ac-[dL][dP][dL][dA][dY][dP][dQ][dW][dY][dR][dE]G[dS][dQ][dR][dW][dR][dD][dY]G[dD]-OH; C-terminus assumed) | 730

target: IL-1 receptor (IL-1R) expressed on human monocytes (human) (UniProt P14778); test: cell-based or functional assay; conditions: not given

Row | Molecule | IC50, in vitro inhibition of IL-1 stimulation of IL-8 in human skin fibroblasts (rIL-1β 50 pg/ml, IL-8 ELISA) [nM]
7 | Ac-[dL][dP][dL][dA][dY][dP][dQ][dW][dY][dY][dA][dN][dS][dE][dE][dW][dT][dF][dP][dT][dE] [peptide of SEQ ID NO: 14 (Ac-…, D-amino acids)] | 11

target: T1, IL-1 receptor (Homo sapiens, UniProt P14778); test: Radioligand competition binding assay (125I-labeled IL-1α) on human monocytes; conditions: IL-1 binding antagonism on human monocytes; average of three measurements and standard error
T1 construct: confluent human monocytes, which express the IL-1 receptor; endogenous in cells; host or cells: human monocytes
T1 sequence (P14778 18-569): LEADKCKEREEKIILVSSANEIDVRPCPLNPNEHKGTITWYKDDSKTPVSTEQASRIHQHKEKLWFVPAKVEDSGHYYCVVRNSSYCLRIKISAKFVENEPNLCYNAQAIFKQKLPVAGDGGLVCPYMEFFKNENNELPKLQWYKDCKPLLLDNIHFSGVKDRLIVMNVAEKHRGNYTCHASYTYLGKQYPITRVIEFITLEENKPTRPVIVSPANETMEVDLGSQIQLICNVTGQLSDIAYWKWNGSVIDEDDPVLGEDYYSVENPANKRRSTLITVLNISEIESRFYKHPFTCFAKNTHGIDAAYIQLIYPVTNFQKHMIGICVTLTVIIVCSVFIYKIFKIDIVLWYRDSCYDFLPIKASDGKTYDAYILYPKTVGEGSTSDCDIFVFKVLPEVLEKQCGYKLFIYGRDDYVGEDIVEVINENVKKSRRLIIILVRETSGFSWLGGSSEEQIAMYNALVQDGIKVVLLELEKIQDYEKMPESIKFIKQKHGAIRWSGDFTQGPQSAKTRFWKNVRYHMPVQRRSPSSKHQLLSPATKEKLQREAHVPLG
Method: Radioligand competition binding assays were performed in 96-well plates containing confluent human monocytes, which express the IL-1 receptor. Wells were washed three times with binding buffer, and binding buffer was placed in each well. Peptides were resuspended in dimethyl sulfoxide at 20 mM and diluted in binding buffer to the desired starting concentration. Using a Beckman robotic system, five 3-fold dilutions were prepared, and peptide solution was transferred to duplicate receptor-containing wells. To each well, radioactive ^125Iodine-labeled IL-Ia (Amersham) was added to a final concentration of 40 pM, and the plates were placed on a shaking platform at 4° C. for 2 hr. Plates were washed with PBS using a plate washer, and bound ^125I-labeled IL-la was eluted for 10 min with 0.1 M NaOH and counted in a gamma counter. IC50 values were determined by fitting the data to a two-parameter logistic equation. In all cases, nonspecific binding was determined by the addition of 3 μM of recombinant IL-Ia.

Row | Molecule | IC50 [nM]
8 | CC(=O)N[C@@H](CC(N)=O)C(=O)N[C@@H](CC(N)=O)C(=O)N[C@@H](CCC(N)=O)C(=O)N[C@@H](CC(C)C)C(=O)N[C@H](C(=O)N[C@@H](C)C(=O)NCC(=O)N[C@@H](Cc1ccc(O)cc1)C(=O)N[C@@H](CC(C)C)C(=O)N[C@@H](CCC(N)=O)C(=O)NCC(=O)N1CCC[C@H]1C(=O)N[C@@H](CC(N)=O)C(=O)N[C@H](C(=O)N[C@@H](CC(N)=O)C(=O)O)C(C)C)C(C)C [SEQ ID NO. 7, Ac-NNQLVAGYLQGPNVN] (Ac-NNQLVAGYLQGPNVN-OH; C-terminus assumed) | > 10000
9 | CC[C@H](C)[C@H](NC(C)=O)C(=O)N[C@@H](CC(=O)O)C(=O)N[C@H](C(=O)N[C@H](C(=O)N1CCC[C@H]1C(=O)N[C@H](C(=O)N[C@@H](CCC(=O)O)C(=O)N[C@@H](C)C(=O)N1CCC[C@H]1C(=O)N[C@@H](Cc1c[nH]cn1)C(=O)N[C@@H](C)C(=O)N[C@@H](CC(C)C)C(=O)N[C@@H](Cc1ccccc1)C(=O)N[C@@H](CC(C)C)C(=O)NCC(=O)N[C@H](C(=O)N[C@@H](Cc1c[nH]cn1)C(=O)NCC(=O)NCC(=O)N[C@@H](CCCCN)C(=O)O)[C@@H](C)CC)[C@@H](C)CC)C(C)C)C(C)C [SEQ ID NO. 9] (Ac-IDVVPIEAPHALFLGIHGGK-OH; C-terminus assumed) | > 10000
10 | CC[C@H](C)[C@H](NC(=O)[C@H](CC(N)=O)NC(=O)[C@@H](NC(=O)[C@H](C)NC(=O)[C@H](CCC(=O)O)NC(=O)[C@H](CC(C)C)NC(=O)[C@H](CCC(N)=O)NC(=O)[C@H](CC(C)C)NC(C)=O)C(C)C)C(=O)N[C@H](C(=O)N[C@@H](CC(=O)O)C(=O)N[C@@H](CC(C)C)C(=O)N[C@@H](CO)C(=O)N[C@@H](CCC(=O)O)C(=O)N[C@@H](CC(N)=O)C(=O)N[C@@H](CCCNC(=N)N)C(=O)N[C@@H](CCCCN)C(=O)N[C@@H](CCC(N)=O)C(=O)N[C@@H](CC(=O)O)C(=O)N[C@@H](CCCCN)C(=O)O)[C@@H](C)O [SEQ ID NO. 11, Ac-LQLEAVNITDLSENRKQDK] (Ac-LQLEAVNITDLSENRKQDK-OH; C-terminus assumed) | > 10000

target: T2, IL-1 receptor (IL-1R) expressed on human monocytes (human, UniProt P14778 18-569); test: cell-based or functional assay; conditions: not given
T2 sequence (looked up): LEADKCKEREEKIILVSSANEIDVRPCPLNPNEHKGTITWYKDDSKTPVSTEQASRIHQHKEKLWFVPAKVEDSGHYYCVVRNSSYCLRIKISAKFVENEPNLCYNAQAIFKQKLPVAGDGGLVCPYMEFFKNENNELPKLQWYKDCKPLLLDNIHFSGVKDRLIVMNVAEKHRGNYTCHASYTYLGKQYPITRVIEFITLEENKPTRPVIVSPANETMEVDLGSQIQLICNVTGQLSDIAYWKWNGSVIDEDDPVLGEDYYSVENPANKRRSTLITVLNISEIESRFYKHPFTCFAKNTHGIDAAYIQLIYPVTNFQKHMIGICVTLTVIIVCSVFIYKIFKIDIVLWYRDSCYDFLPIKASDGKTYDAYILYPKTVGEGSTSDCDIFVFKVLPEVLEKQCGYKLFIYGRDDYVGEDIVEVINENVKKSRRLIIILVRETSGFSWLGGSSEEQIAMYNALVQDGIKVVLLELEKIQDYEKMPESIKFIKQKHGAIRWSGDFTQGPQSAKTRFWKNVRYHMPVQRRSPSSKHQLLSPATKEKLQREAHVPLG

Row | Molecule | IC50, in vitro inhibition of IL-1 stimulation of IL-8 in human skin fibroblasts (rIL-1β 50 pg/ml, IL-8 ELISA) [nM]
11 | Ac-ETPFTWEESNAYYWQPYALPL (also called peptide 13) [peptide of SEQ ID NO: 13 (Ac-ETPFTWEESNAYYWQPYALPL)] | 11
12 | Ac-[dK][dD][dQ][dK][dR][dN][dE][dS][dL][dD][dT][dI][dN][dV][dA][dE][dL][dQ][dL] [peptide of SEQ ID NO: 12 (Ac-KDQKRNESLDTINVAELQL, D-amino acids)] | > 10000
